In PubChem BioAssay (NCI):
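Five concentrations, 48 hours, 96-well plates. TGI marks complete inhibition of growth.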

Legend:
Experiment in all cases: DTP human tumour cell line panel, 48 h
UACC-62 melanoma = tested on: UACC-62 melanoma
OVCAR-3 ovarian = tested on: OVCAR-3 ovarian
NCI/ADR-RES ovarian = tested on: NCI/ADR-RES ovarian
T-47D breast = tested on: T-47D breast
A498 renal = tested on: A498 renal
CCRF-CEM leukemia = tested on: CCRF-CEM leukemia
SNB-19 CNS = tested on: SNB-19 CNS
HCT-116 colon = tested on: HCT-116 colon
OVCAR-4 ovarian = tested on: OVCAR-4 ovarian
K-562 leukemia = tested on: K-562 leukemia
UACC-257 melanoma = tested on: UACC-257 melanoma
MDA-N = tested on: MDA-N
SR leukemia = tested on: SR leukemia
NCI-H460 lung = tested on: NCI-H460 lung
CAKI-1 renal = tested on: CAKI-1 renal
SNB-75 CNS = tested on: SNB-75 CNS
MALME-3M melanoma = tested on: MALME-3M melanoma
MDA-MB-435 = tested on: MDA-MB-435
SK-MEL-5 melanoma = tested on: SK-MEL-5 melanoma

## NS(=O)(=O)c1ccc(N=Nc2nc3[nH]cnc(=S)c3[nH]2)cc1
UACC-62 melanoma
  TGI: 8.72 µM
OVCAR-3 ovarian
  TGI: > 22.5 µM
NCI/ADR-RES ovarian
  TGI: 14.5 µM
T-47D breast
  TGI: > 25.3 µM
A498 renal
  TGI: 98.9 µM
CCRF-CEM leukemia
  TGI: 4.21 µM
SNB-19 CNS
  TGI: > 100 µM
HCT-116 colon
  TGI: 16.3 µM
OVCAR-4 ovarian
  TGI: > 100 µM
K-562 leukemia
  TGI: > 53.1 µM
UACC-257 melanoma
  TGI: > 87.6 µM
MDA-N
  TGI: > 38.9 µM
SR leukemia
  TGI: 1.11 µM
NCI-H460 lung
  TGI: 10.1 µM
CAKI-1 renal
  TGI: > 100 µM
SNB-75 CNS
  TGI: > 100 µM
MALME-3M melanoma
  TGI: 36 µM
MDA-MB-435
  TGI: > 100 µM
SK-MEL-5 melanoma
  TGI: 24.8 µM

## O=C1CSC(c2ccccc2[N+](=O)[O-])N1c1ccc(-n2c(-c3ccccc3)nc3ccccc3c2=O)cc1 (stereo not given)
UACC-62 melanoma
  TGI: > 100 µM
OVCAR-3 ovarian
  TGI: > 100 µM
NCI/ADR-RES ovarian
  TGI: > 100 µM
T-47D breast
  TGI: 98.4 µM
A498 renal
  TGI: > 100 µM
CCRF-CEM leukemia
  TGI: > 100 µM
SNB-19 CNS
  TGI: > 100 µM
HCT-116 colon
  TGI: > 100 µM
OVCAR-4 ovarian
  TGI: > 100 µM
K-562 leukemia
  TGI: > 100 µM
UACC-257 melanoma
  TGI: > 100 µM
MDA-N
  TGI: > 100 µM
SR leukemia
  TGI: > 100 µM
NCI-H460 lung
  TGI: > 100 µM
CAKI-1 renal
  TGI: > 100 µM
SNB-75 CNS
  TGI: 34.9 µM
MALME-3M melanoma
  TGI: > 100 µM
MDA-MB-435
  TGI: > 100 µM
SK-MEL-5 melanoma
  TGI: > 100 µM

## CC(=O)O[C@H]1CC[C@@]2(C)C(=CC[C@H]3[C@@H]4C/C(=C\c5ccncc5)[C@H](OC(C)=O)[C@@]4(C)CC[C@@H]32)C1
UACC-62 melanoma
  TGI: 26.5 µM
OVCAR-3 ovarian
  TGI: 23.4 µM
NCI/ADR-RES ovarian
  TGI: 27.3 µM
T-47D breast
  TGI: 38.5 µM
A498 renal
  TGI: 26.7 µM
CCRF-CEM leukemia
  TGI: 11.2 µM
SNB-19 CNS
  TGI: 22.2 µM
HCT-116 colon
  TGI: 24.1 µM
OVCAR-4 ovarian
  TGI: 18.2 µM
K-562 leukemia
  TGI: 42.4 µM
UACC-257 melanoma
  TGI: 33.3 µM
MDA-N
  TGI: 46.8 µM
SR leukemia
  TGI: 9.19 µM
NCI-H460 lung
  TGI: 24.4 µM
CAKI-1 renal
  TGI: 25.7 µM
SNB-75 CNS
  TGI: 23.8 µM
MALME-3M melanoma
  TGI: 21.7 µM
MDA-MB-435
  TGI: 36.5 µM
SK-MEL-5 melanoma
  TGI: 18.9 µM

## COc1cc2c(cc1OC)CN1CCc3ccccc3CC1C2 (stereo not given)
UACC-62 melanoma
  TGI: > 100 µM
OVCAR-3 ovarian
  TGI: > 100 µM
NCI/ADR-RES ovarian
  TGI: > 100 µM
T-47D breast
  TGI: 75.6 µM
A498 renal
  TGI: > 100 µM
CCRF-CEM leukemia
  TGI: > 100 µM
SNB-19 CNS
  TGI: > 100 µM
HCT-116 colon
  TGI: > 100 µM
OVCAR-4 ovarian
  TGI: 98.2 µM
K-562 leukemia
  TGI: > 100 µM
UACC-257 melanoma
  TGI: > 100 µM
MDA-N
  TGI: > 100 µM
SR leukemia
  TGI: 23.5 µM
NCI-H460 lung
  TGI: > 100 µM
CAKI-1 renal
  TGI: > 100 µM
SNB-75 CNS
  TGI: > 100 µM
MALME-3M melanoma
  TGI: > 100 µM
MDA-MB-435
  TGI: > 100 µM
SK-MEL-5 melanoma
  TGI: > 100 µM

## Cc1n(-c2ccccc2)c2c([n+]1Cc1ccc([N+](=O)[O-])cc1)C(=O)c1ccccc1C2=O
UACC-62 melanoma
  TGI: 3.74 µM
OVCAR-3 ovarian
  TGI: 0.854 µM
NCI/ADR-RES ovarian
  TGI: 5.61 µM
T-47D breast
  TGI: 3.43 µM
A498 renal
  TGI: 25.5 µM
CCRF-CEM leukemia
  TGI: 5.46 µM
SNB-19 CNS
  TGI: 3.22 µM
HCT-116 colon
  TGI: 4.36 µM
OVCAR-4 ovarian
  TGI: 3.2 µM
K-562 leukemia
  TGI: 4.64 µM
UACC-257 melanoma
  TGI: 3.16 µM
MDA-N
  TGI: 3.16 µM
SR leukemia
  TGI: 4.9 µM
NCI-H460 lung
  TGI: 12.4 µM
CAKI-1 renal
  TGI: 39.7 µM
SNB-75 CNS
  TGI: 13.1 µM
MALME-3M melanoma
  TGI: 3.05 µM
MDA-MB-435
  TGI: 3.12 µM
SK-MEL-5 melanoma
  TGI: 3.29 µM
